# Activity calls are given as the source filed them. The calls are words filed in the database; no cut-off is given here.
# Columns and labels:
# [1] = Induction of alkylation in fluorescein-labelled 5'-GGG-3' double stranded DNA (unknown origin) at 100 uM incubated for 30 mins by EMSA relative to control
# [2] = Binding affinity to FAM-labelled 5'-GGG-3' double stranded DNA (unknown origin) assessed as migration of compound from 5'-AGT-3' to 5'-GGC-3' at 100 uM incubated for 30 mins by EMSA
# [3] = Induction of alkylation in fluorescein-labelled 5'-GGG-3' double stranded DNA (unknown origin) at 2.5 uM incubated for 30 mins by EMSA relative to control
# [4] = Induction of alkylation in fluorescein-labelled 5'-GGG-3' double stranded DNA (unknown origin) at 5 uM incubated for 30 mins by EMSA relative to control
# [5] = Induction of alkylation in fluorescein-labelled 5'-GGG-3' double stranded DNA (unknown origin) at 10 uM incubated for 30 mins by EMSA relative to control
# [6] = Induction of alkylation in fluorescein-labelled 5'-GGG-3' double stranded DNA (unknown origin) at 25 uM incubated for 30 mins by EMSA relative to control
# [7] = Induction of alkylation in fluorescein-labelled 5'-GGG-3' double stranded DNA (unknown origin) at 50 uM incubated for 30 mins by EMSA relative to control
# [8] = Reversible binding affinity to fluorescein-labelled 5'-GGG-3' double stranded DNA (unknown origin) at 100 uM incubated for 30 mins in presence of KCN by EMSA
# [9] = Induction of alkylation in fluorescein-labelled 5'-GGC-3' double stranded DNA (unknown origin) at 100 uM incubated for 30 mins by EMSA relative to control
# [10] = Induction of alkylation in fluorescein-labelled 5'-CGG-3' double stranded DNA (unknown origin) at 100 uM incubated for 30 mins by EMSA relative to control
# [11] = Induction of alkylation in fluorescein-labelled 5'-AGC-3' double stranded DNA (unknown origin) at 100 uM incubated for 30 mins by EMSA relative to control
# [12] = Induction of alkylation in fluorescein-labelled 5'-AGT-3' double stranded DNA (unknown origin) at 100 uM incubated for 30 mins by EMSA relative to control
# [13] = Induction of alkylation in fluorescein-labelled 5'-ATA-3' double stranded DNA (unknown origin) at 100 uM incubated for 30 mins by EMSA relative to control
# [14] = Induction of alkylation in fluorescein-labelled 5'-GGG-3' double stranded DNA (unknown origin) incubated for 30 mins by EMSA relative to control
# [15] = Binding affinity to fluorescein-labelled 5'-GGG-3' double stranded DNA (unknown origin) assessed as formation of compound-dsDNA oligomer complex at five equivalents incubated for 30 mins by EMSA relative to control
structure (smiles),measurement,setting,value
COc1c(C)cc2c(c1O)[C@@H]1[C@@H]3Cc4cc(C)c(OC)c(O)c4[C@H](CNC(=O)[C@H](C)NC(=O)OCC4c5ccccc5-c5ccccc54)N3[C@@H](C#N)[C@H](C2)N1C,Activity,[1],22%
CCCCCCCCC/C=C/COC(=O)N[C@@H](C)C(=O)NC[C@H]1c2c(cc(C)c(OC)c2O)C[C@H]2[C@H]3c4c(cc(C)c(OC)c4O)C[C@@H]([C@H](C#N)N12)N3C,Activity,[1],inactive
COc1c(C)cc2c(c1O)[C@@H]1[C@@H]3Cc4cc(C)c(OC)c(O)c4[C@H](CNC(=O)[C@H](C)N)N3[C@@H](C#N)[C@H](C2)N1C,Activity,[2],Active
same,Activity,[3],10%
same,Activity,[4],41%
same,Activity,[5],85%
same,Activity,[6],> 95%
same,Activity,[7],> 95%
same,Activity,[1],> 90%
same,Activity,[8],Active
same,Activity,[9],94%
same,Activity,[10],63%
same,Activity,[11],80%
same,Activity,[12],36%
same,Activity,[13],inactive
same,Activity,[14],Dose-dependent effect
same,Activity,[15],> 95%
COC1=C(C)C(=O)C2=C(C1=O)[C@H](CNC(=O)[C@H](C)N)N1[C@@H](C#N)[C@@H]3Cc4cc(C)c(OC)c(O)c4[C@H]([C@@H]1C2)N3C,Activity,[1],31%
same,Activity,[9],53%
same,Activity,[10],33%
same,Activity,[11],17%
same,Activity,[12],inactive
same,Activity,[13],inactive
C=CCOC(=O)N[C@@H](C)C(=O)NC[C@H]1c2c(cc(C)c(OC)c2O)C[C@H]2[C@H]3c4c(cc(C)c(OC)c4O)C[C@@H]([C@H](C#N)N12)N3C,Activity,[1],86%
